Laboratory results from the supplement of paper PMC9763283.
Where a name gives a salt, the structure may show the parent alone.

Legend:
Assay in all cases: area under growth-rate inhibition curve (AUC GRI) (dimensionless (GR-based AUC)); higher = less growth inhibition
Details in all cases: exposure time: 72 h; concentrations: 0.1, 1, 10 uM
BT474-LTR = test system: BT474-LTR
Method in brief: (§1)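 Six breast cancer cell line models (two triple-negative lines, plus parental and lapatinib + trastuzumab-resistant HER2+ lines) were plated at optimised log-phase densities and exposed to compound at 0.1, 1 or 10 µM for 72 h. Cells were fixed in 4% paraformaldehyde, and nuclei were stained with Hoechst 33342 or DAPI, imaged and counted. Area under the growth-rate inhibition curve came from 2 biological replicates, with growth corrected using Day 0 plates, untreated Day 3 plates and DMSO controls.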

BT474-P = test system: BT474-P
Method in brief: as §1

MDA-MB-231 = test system: MDA-MB-231
Method in brief: as §1

MDA-MB-468 = test system: MDA-MB-468
Method in brief: as §1

SKBR3-LTR = test system: SKBR3-LTR
Method in brief: as §1

SKBR3-P = test system: SKBR3-P
Method in brief: as §1

Row | SMILES | area under growth-rate inhibition curve (BT474-LTR) | area under growth-rate inhibition curve (BT474-P) | area under growth-rate inhibition curve (MDA-MB-231) | area under growth-rate inhibition curve (MDA-MB-468) | area under growth-rate inhibition curve (SKBR3-LTR) | area under growth-rate inhibition curve (SKBR3-P)
1 | [Cl-].[H+].c1ccc(CN(CC2=NCCN2)c2ccccc2)cc1 [Antazoline hydrochloride] | 1.05 | 1.01 | 1.03 | 1.04 | 1.05 | 1.03
2 | CCOc1cc([C@@H](CS(C)(=O)=O)N2C(=O)c3cccc(NC(C)=O)c3C2=O)ccc1OC [Apremilast] | 1.04 | 1.01 | 1 | 1.03 | 1.05 | 1.02
3 | COC(=O)C1=CCCN(C)C1.[Br-].[H+] [Arecoline] | 1.06 | 1.04 | 1.03 | 0.988 | 1.03 | 1.02
4 | O=C1CCc2ccc(OCCCCN3CCN(c4cccc(Cl)c4Cl)CC3)cc2N1 [Aripiprazole] | 0.955 | 0.924 | 0.988 | 0.863 | 0.996 | 0.971
5 | CN1CC2c3ccccc3Oc3ccc(Cl)cc3C2C1.O=C(O)C=CC(=O)O (centres undefined) [Asenapine] | 1.06 | 1.01 | 1.02 | 0.959 | 0.993 | 0.975
6 | CCC1(c2c[nH]cn2)Cc2ccccc2C1 [Atipamezole hydrochloride] | 1.11 | 1.04 | 1.03 | 1.02 | 1.07 | 0.985
7 | CCC1(c2c[nH]cn2)Cc2ccccc2C1 [Atipamezole] | 1.08 | 1.04 | 1.02 | 1.01 | 1.09 | 1.01
8 | CNCC[C@@H](Oc1ccccc1C)c1ccccc1.Cl [Atomoxetine HCl] | 1.09 | 1.04 | 1.02 | 1.01 | 1.05 | 1.01
9 | CN1C2CCC1CC(OC(=O)C(CO)c1ccccc1)C2 (centres undefined) [Atropine] | 1.11 | 1.04 | 1.03 | 1.04 | 1.09 | 1.03
10 | CN1CCC(=C2c3ccccc3CCc3cccnc32)CC1.O=C(O)C=CC(=O)O.O=C(O)C=CC(=O)O [Azatadine dimaleate] | 1.12 | 1.07 | 1.05 | 1.05 | 1.01 | 1.02
11 | CN1CCCC(n2nc(Cc3ccc(Cl)cc3)c3ccccc3c2=O)CC1.[Cl-].[H+] (centres undefined) [Azelastine HCl] | 1.06 | 1.01 | 1.02 | 0.985 | 1.02 | 0.938
12 | CCc1cc(C(C)=NOCc2ccc(C3CCCCC3)c(C(F)(F)F)c2)ccc1CN1CC(C(=O)O)C1 [BAF312 (Siponimod)] | 0.989 | 1.01 | 1.01 | 0.961 | 0.968 | 0.99
13 | COc1ccc2c(c1)c(CC(=O)N1CCOCC1)c(C)n2C(=O)c1ccc(Cl)cc1 [BML-190] | 1.08 | 1.03 | 1.01 | 1.01 | 1.03 | 1.02
14 | COc1ccccc1N1CCN(CCN2C(=O)CC3(CCCC3)CC2=O)CC1.[Cl-].[Cl-].[H+].[H+] [BMY 7378] | 1.11 | 1.03 | 1.03 | 1.02 | 1.1 | 0.982
15 | CC(C)C[C@@H]1NC(=O)[C@@H](C(C)C)NC(=O)[C@@H]2CCCN2C(=O)[C@@H](CC(=O)O)NC(=O)[C@@H](Cc2c[nH]c3ccccc23)NC1=O [BQ-123] | 1.02 | 0.983 | 0.988 | 0.996 | 1.03 | 1.01
16 | CN(C)C(=O)Oc1cc(OC(=O)N(C)C)cc(C(O)CNC(C)(C)C)c1.[Cl-].[H+] (centres undefined) [Bambuterol HCl] | 1.09 | 1.06 | 1.04 | 1.03 | 1.03 | 1.01
17 | Cc1c(-c2ccc(O)cc2)n(Cc2ccc(OCCN3CCCCCC3)cc2)c2ccc(O)cc12.[Cl-].[H+] [Bazedoxifene HCl] | 0.949 | 0.755 | 0.9 | 0.898 | 0.944 | 0.956
18 | Cl.NC(CO)C(=O)NNCc1ccc(O)c(O)c1O (centres undefined) [Benserazide HCl] | 1.1 | 1.05 | 1.05 | 1.06 | 1.05 | 1.03
19 | CS(=O)(=O)[O-].C[NH+]1[C@@H]2CC[C@H]1C[C@@H](OC(c1ccccc1)c1ccccc1)C2 [Benztropine mesylate] | 1.08 | 1.03 | 1.03 | 0.994 | 1.01 | 0.986
20 | O=C(O)CCCN1CCC(OC(c2ccc(Cl)cc2)c2ccccn2)CC1.O=S(=O)(O)c1ccccc1 (centres undefined) [Bepotastine Besilate] | 1.09 | 1.03 | 1.03 | 1.03 | 1.06 | 0.992
21 | CC(C)NCC(O)COc1ccc(CCOCC2CC2)cc1.[Cl-].[H+] (centres undefined) [Betaxolol hydrochloride (Betoptic)] | 1.1 | 1.02 | 1.05 | 1.04 | 1.06 | 0.98
22 | CC(C)NCC(O)COc1ccc(CCOCC2CC2)cc1.[Cl-].[H+] (centres undefined) [Betaxolol] | 1.07 | 1.01 | 1.05 | 1.01 | 1.07 | 0.996
23 | CC(C[N+](C)(C)C)OC(N)=O.[Cl-] (centres undefined) [Bethanechol chloride] | 1.11 | 1.05 | 1.03 | 1.04 | 1.07 | 1.03
24 | Oc1c(Cl)cc(Cl)cc1Sc1cc(Cl)cc(Cl)c1O [Bithionol] | 1.06 | 0.999 | 1.03 | 0.985 | 1.02 | 1.01
